{"source": "patent US20240074473A1", "about": "“METHOD FOR INDUCING HYPERTROPHIC MUSCLE FIBERS FOR INDUSTRIAL MEAT PRODUCTION” (Yeda Research and Development Co. Ltd., priority 2021, published 2024)", "test_system": "primary bovine myoblasts", "test": "Fusion index of primary bovine myoblasts", "assay_type": "cell-based", "details": "single administration of 0.5 uM, 72 hours post treatment", "procedure": "Bovine myoblasts were seeded in equal number in 96-well plates and the following day treated either with PM, PM supplemented with 0.5 uM SCH 772984 (ERKi) or differentiation media (DM). Media was replenished daily either with fresh PM or DM (ERKi was not added again). At 72 hours post treatment, cells were fixed and stained for myosin heavy chain, and several fields per condition were imaged. Nuclei per fiber was quantified per field to result in a fusion index. For ovine myoblasts—equal number of cells were seeded in an 8 well chamber slide for 24 hours. The following day cells were treated with either with 1 uM SCH 772984 (ERKi) or differentiation media (DM), supplemented with 100 nM of Sir-Actin reagent, then incubated for 4 hours and then the slide was transferred to a heated and CO2 chambered microscope unit. Several fields of view were selected and live imaging was performed by capturing images of each field every 7 minutes. The series of images for each treatment over a period of 31 hours was stacked into a movie file using ImageJ.\nPrimary bovine myoblast isolation and treatment: bovine myoblasts were isolated from freshly slaughtered muscle cow muscle with collagenase type II. Following tissue dissociation, the cell suspension was grown for 3-4 days on 10% Matrigel coated plates. […]"}
{"smiles": "O=C(Nc1ccc2[nH]nc(-c3ccncc3)c2c1)[C@@H]1CCN(CC(=O)N2CCN(c3ccc(-c4ncccn4)cc3)CC2)C1", "note": "[SCH772984]", "values": [{"measurement": "Increase in fusion index compared to DM", "result": "~8", "unit": "fold"}, {"measurement": "Increase in fusion index compared to DM", "setting": "listed as ERKi", "result": 6, "unit": "fold"}]}
